In the OPERA property sets (Mansouri et al. 2018):

In the case of `C[C@@H]1CC[C@H]2[C@@H](C)C(=O)O[C@@H]3O[C@@]4(C)CC[C@@H]1[C@]32OO4`, the logP was 2.9.
`CCCCCN1C(=O)CC2CCC(C)C3CCC4(C)OOC23C1O4` (stereo not given) showed a logP of 4.24.
Work on `CC1CCC2CC(=O)N(CCCc3ccccc3)C3OC4(C)CCC1C23OO4` (stereo not given) yielded a logP of 4.39.
`CC(C)CN1C(=O)CC2CCC(C)C3CCC4(C)OOC23C1O4` (stereo not given) gave a logP of 3.66.
`CC1CCC2CC(=O)N(CC(=O)O)C3OC4(C)CCC1C23OO4` (stereo not given) gave a logP of 1.75.
Work on `CCCN1C(=O)CC2CCC(C)C3CCC4(C)OOC23C1O4` (stereo not given) yielded a logP of 3.4.
With `CC1CCC2CC(=O)N(Cc3ccc(Cl)cc3)C3OC4(C)CCC1C23OO4` (stereo not given) the logP was 4.32.
Compound `CC1CCC2CC(=O)N(C)C3OC4(C)CCC1C23OO4` (stereo not given) has a logP of 2.76.
`CO[C@H]1O[C@@H]2O[C@@]3(C)CC[C@H]4[C@H](C)CC[C@@H]([C@H]1C)[C@@]24OO3` gave a logP of 3.53.
`CC(C)CCN1C(=O)CC2CCC(C)C3CCC4(C)OOC23C1O4` (stereo not given) gave a logP of 4.16.
